Results on one cell line are retold here after the supplement of paper PMC10307832.

Common to all, as to test: relative viability (nuclei count vs DMSO), 5 days (fraction); higher = more cells survive
Compound in assay [1]: Cn1cnc2c(F)c(Nc3ccc(Br)cc3Cl)c(C(=O)NOCCO)cc21 [Selumetinib] + CS(=O)(=O)N1CCN(Cc2cc3nc(-c4cccc5[nH]ncc45)nc(N4CCOCC4)c3s2)CC1 [Pictilisib] (partner 1 µM)
The essentials: (§1)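 For relative viability, nuclei counts in treated wells were divided by those in vehicle wells. Lung cancer cell lines had been pin-tool dosed in 1536-well plates the day after seeding and cultured for 5 days, then fixed and stained in one step (final 0.05% Triton X-100, 1% formaldehyde, 1 ug/ml Hoechst) and imaged at 4×. Doses were one drug alone or a fixed anchor-drug dose plus five library-drug doses (not always all listed) in √10 steps, and values are duplicate-plate medians.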

Compound in assay [2]: Cn1cnc2c(F)c(Nc3ccc(Br)cc3Cl)c(C(=O)NOCCO)cc21 [Selumetinib] + Nc1nc2[nH]cc(CCc3ccc(C(=O)N[C@@H](CCC(=O)O)C(=O)O)cc3)c2c(=O)[nH]1 [Pemetrexed] (partner 0.2 µM)
The essentials: as §1

Compound in assay [3]: CC1(C)CCC(CN2CCN(c3ccc(C(=O)NS(=O)(=O)c4ccc(NCC5CCOCC5)c([N+](=O)[O-])c4)c(Oc4cnc5[nH]ccc5c4)c3)CC2)=C(c2ccc(Cl)cc2)C1 [Venetoclax] + CS(=O)(=O)CCNCc1ccc(-c2ccc3ncnc(Nc4ccc(OCc5cccc(F)c5)c(Cl)c4)c3c2)o1 [Lapatinib] (partner 2 µM)
In a few lines: as §1

Compound in assay [4]: Cn1cnc2c(F)c(Nc3ccc(Br)cc3Cl)c(C(=O)NOCCO)cc21 [Selumetinib] + CC1(C)CCC(c2ccc(Cl)cc2)=C(CN2CCN(c3ccc(C(=O)NS(=O)(=O)c4ccc(N[C@H](CCN5CCOCC5)CSc5ccccc5)c(S(=O)(=O)C(F)(F)F)c4)cc3)CC2)C1 [Navitoclax] (partner 0.5 µM)
The essentials:
as §1

Regarding UMC-11, the relative viability in assay [1] (first compound 0.02 µM) turned out to be 0.827; in assay [1] (first compound 0.06325 µM), 0.772; in assay [1] (first compound 0.2 µM) it was 0.869; in assay [1] (first compound 0.6325 µM), 0.922; in assay [2] (first compound 0.02 µM), 0.771; in assay [2] (first compound 0.06325 µM), 0.788. Further, the relative viability was determined as 0.827 in assay [2] (first compound 0.2 µM); 0.903 in assay [2] (first compound 0.6325 µM); 0.828 in assay [3] (first compound 0.01 µM); 0.942 in assay [3] (first compound 0.03162 µM); 0.712 in assay [3] (first compound 0.1 µM); 0.928 in assay [3] (first compound 0.3162 µM). Moreover, the relative viability in assay [3] (first compound 1 µM) worked out at 0.912; in assay [4] (first compound 0.02 µM), 0.273; in assay [4] (first compound 0.06325 µM), 0.311; in assay [4] (first compound 0.2 µM), 0.3; in assay [4] (first compound 0.6325 µM) it was 0.314.
